From article PMC10597491 (PLOS ONE, 2023)
Bridge positions count the residues as written; N and C are the ends. Ends that are not written are not given here.

Target: T1, IL-2/15Rβγc receptor (Homo sapiens, UniProt P31785)
T1 construct: pcDNA3.1 expression vector encoding full-length IL-2Rβ, IL-7Rα, IL-9Rα, or IL-21Rα; TF-1 cells naturally express γc and IL-4Rα; expressed in transfected cells
T1 sequence (P31785 23-369): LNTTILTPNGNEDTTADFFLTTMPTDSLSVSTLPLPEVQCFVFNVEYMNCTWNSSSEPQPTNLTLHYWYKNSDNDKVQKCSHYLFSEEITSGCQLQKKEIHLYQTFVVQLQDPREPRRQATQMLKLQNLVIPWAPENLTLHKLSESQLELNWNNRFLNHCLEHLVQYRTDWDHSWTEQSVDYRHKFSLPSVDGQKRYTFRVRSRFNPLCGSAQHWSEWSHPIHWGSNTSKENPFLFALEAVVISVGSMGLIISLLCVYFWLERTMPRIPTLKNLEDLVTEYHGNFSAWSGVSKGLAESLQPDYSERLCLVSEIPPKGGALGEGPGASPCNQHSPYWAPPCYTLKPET
Experiment: IL-15-induced STAT activation in TF-1 cells expressing IL-2/15Rβ
Type: cell-based
Details: IL-15 at ~EC75; up to 10 μM MDK1472 or 5 μM MDK-703
Method: There is no detectable effect of the novel agonists on the activation of any of the other receptors of the γc family.
Cells were deprived of growth factors by overnight incubation at 5×10^5 cells/mL in starvation medium (RPMI 1640 + 4.5 g/L glucose + 0.2% FBS + 2 mM L-glutamine + 1 mM NaPyr + 10 mM HEPES + 0.5x penicillin-streptomycin with no cytokine supplement) in T75 flasks. For assays, cells were plated in 96-well V-bottom plates at 2×10^5 cells/well. Three-fold serial dilutions in starvation medium of the test compounds or cytokine were added to the cells and incubated for 30 min at 37°C. Following incubation, cell extracts were prepared by adding a mixture of 10x Cell Lysis Buffer (Cell Signaling Technology Cat# 9803) and 100x HALT Phosphatase and Protease Inhibitor Cocktail (Thermo Fisher Cat# 78442) directly to the wells. The plates were agitated at 25°C for 5 min to prepare cell extracts for immediate use or to be stored at -80°C until assay. […]
TF-1-derived lines separately expressing each gamma common family private receptor were starved overnight at 5x10^5 cells/mL. The following day, the cells were counted and plated at 2x10^6 cells/well in 96-well plates. […] Cell extracts were prepared and analyzed for pSTAT3, pSTAT5, or pSTAT6 accumulation with Pathscan pSTAT ELISA kits as described above.

Ac-GWGIPWCTLDPGSLQCAWLGKHGGGGSGGVVCQDWEGVELCWQGG (disulfide 7-16, 32-41) [MDK1472]
inhibition of IL-15 activation: neither MDK1472 nor MDK-703 exhibit inhibition
